Measured values as given in US9505709B2, “Compositions and methods relating to ionic salts of peptides” (Thetis Pharmaceuticals LLC, priority 2014, dated 2016).

How the values were obtained:
[1] = Oral pharmacokinetics (oral gavage), plasma free EPA or free DHA; assay type: in vivo, Sprague-Dawley rats; conditions: rat
Method: Experiments via Oral Gavage: Oral pharmacokinetic parameters of TP-212 (Lysyl-Lysine Bis-EPA), TP-312 (Lysyl-Lysine Bis-DHA), EPA-EE, EPA FFA and DHA FFA were determined in Sprague-Dawley rats. EPA-EE is 97% pure ethyl ester form of eicosapentaenoic acid. It is the principal polyunsaturated fatty acid in Vascepa, an Omega-3 compound approved in the U.S. for the treatment of severe hypertriglyceridemia. EPA FFA is 97% pure free fatty acid form of eicosapentaenoic acid and DHA FFA is 98% pure free fatty acid DHA. EPA FFA and DHA FFA are the two principal poly-unsaturated fatty acids in Epanova, an Omega-3 compound approved in the U.S. for the treatment of severe hypertriglyceridemia. The subject drugs were administered by oral gavage as an aqueous solution in de-ionized water to 6 Sprague-Dawley rats per group (3 males and 3 females). Rats were dosed at 40 mg/kg. Blood samples were obtained from each rat by jugular vein catheter. Samples were collected at pre-dose and at 0.25, 0.5, 1, 2, 4, 8, 12 and 18 hours post dose. Blood samples were centrifuged to separate red blood cells and the resulting plasma samples were analyzed for free EPA or free DHA. Free EPA or […] extracted from rat plasma with hexane at acidic condition without hydrolysis. Detection was by MS-MS monitoring of negative ion for EPA or DHA. Calculated pharmacokinetic values are mean values from 6 rats for each study drug.
(§1) For all figures and tables, the data are adjusted as follows for comparative purposes. First, the actual plasma levels are baseline adjusted. Thus, for each study arm, the pre-dose level (time=0) is subtracted from the actual plasma levels at each time point, with negative values adjusted to zero. Second, these baseline adjusted values are further adjusted to be molar dose equivalent on a comparative basis among the study arms with respect to EPA or DHA payload (i.e., as if equal amounts of free fatty acid EPA or DHA are administered in each study arm).

[2] = Intravenous injection pharmacokinetics, plasma free EPA or free DHA; assay type: in vivo, Sprague-Dawley rats; conditions: rat
Method: Experiments via Intravenous Injection: TP-212 and TP-312 were administered by intravenous injection (20 mg/kg) to Sprague-Dawley rats (n=6/group—3 male and 3 female), and plasma was obtained from serial blood samples taken from each animal at scheduled times ([…]). Blood samples were centrifuged to separate red blood cells and the resulting plasma samples were analyzed for free EPA or free DHA. Free EPA or free DHA was extracted from rat plasma with hexane at acidic condition without hydrolysis. Detection was by MS-MS monitoring of negative ion for EPA or DHA. Calculated pharmacokinetic values are mean values from 6 rats for each study drug.
as §1

[3] = test system: Balb/C mice; test: Ocular irritation after topical dosing to the cornea (hyperemia, squinting, discharge, lid swelling); assay type: in vivo; conditions: for Hyperemia: 3 μL drop in each eye four times daily for 3 days; for Hyperemia at last dose / final evaluation: concentrations that showed an initial increase or all tested, last dose / final evaluation (Day 3)
Method: In an embodiment where the ophthalmic formulation is an aqueous formulation, it has been determined in mice that certain formulations can be administered to the surface of the eye without producing irritation that would make them unsuitable for such application. Irritation parameters of TP-211-1, TP-212-1, TP-311-1 and TP-312-1 related to hyperemia, squinting, and discharge were determined in Balb/C mice. Mice were dosed topically to the cornea using a calibrated micropipette, with a 3 μL drop of treatment in each eye four times daily for 3 consecutive days at various concentrations.
TP-211-1 is Lysyl-lysine EPA. TP-212-1 is Lysyl-lysine bis-EPA. TP-311-1 is Lysyl-lysine DHA. TP-312-1 is Lysyl-lysine bis-DHA. The study drugs were prepared using phosphate buffered saline (PBS) to reach target concentrations ranging from 0.1% to 1.0%.
The animals were monitored for scratching at the eye or any other abnormal behavior post-dose. Ocular exams were conducted on Days 1 and 3 with use of a Micron III camera system to take high resolution videos of the right eye of each animal Clinical signs including but not limited to hyperemia, discharge, lid swelling, and squinting were evaluated by trained personnel who was masked as to group assignment. Each clinical sign was graded on a scale of 0-4, with the exception of lid swelling which was graded on a scale of 0-2. Scores were averaged and are expressed as the mean±SEM for each group. Statistical significance was assessed between the treatment arms and the vehicle group. Any significance is noted by asterisks (*=p<0.05, **=p<0.01, ***=p<0.001).

[4] = Stability analysis by 1H NMR of samples exposed to air and light; conditions: ambient temperature
Method: Stability analysis was performed using 1H NMR (400 MHz) with acetic acid-d4 at various time point (typically days 1, 14, 30 and 60) using samples exposed to air and light at ambient temperature (clear vials with no caps).

[5] = oral gavage 40 mg/kg, molar dose equivalent, baseline adjusted
[6] = intravenous injection 20 mg/kg, molar dose equivalent, baseline adjusted

With `CC/C=C\C/C=C\C/C=C\C/C=C\C/C=C\CCCC(=O)O.CC/C=C\C/C=C\C/C=C\C/C=C\C/C=C\CCCC(=O)O.NCCCC[C@H](NC(=O)[C@@H](N)CCCCN)C(=O)O` [Compound 2, (L,L) Lysyl-lysine bis-EPA] the “Tmax (free EPA)” value ([1]; oral gavage 40 mg/kg) was 30 min, the “Plasma level of free EPA” value ([1]; oral gavage 40 mg/kg, 0 h (pre-dose), molar dose equivalent, baseline adjusted) was 0 ng/mL and the “Plasma level of free EPA” value ([1]; oral gavage 40 mg/kg, 0.25 h (15 min), molar dose equivalent, baseline adjusted) was 300 ng/mL. For the same compound, the “Plasma level of free EPA” value ([1]; oral gavage 40 mg/kg, 0.5 h (30 min), molar dose equivalent, baseline adjusted) was 9500 ng/mL, the “Plasma level of free EPA” value ([1]; oral gavage 40 mg/kg, 1 h (60 min), molar dose equivalent, baseline adjusted) was 3900 ng/mL and the “Plasma level of free EPA” value ([1]; oral gavage 40 mg/kg, 2 h (120 min), molar dose equivalent, baseline adjusted) was 3200 ng/mL. For the same compound, the “Plasma level of free EPA” value ([1]; oral gavage 40 mg/kg, 4 h (240 min), molar dose equivalent, baseline adjusted) was 1500 ng/mL, the “Plasma level of free EPA” value ([1]; oral gavage 40 mg/kg, 8 h, molar dose equivalent, baseline adjusted) was 600 ng/mL and the “Plasma level of free EPA” value ([1]; oral gavage 40 mg/kg, 12 h, molar dose equivalent, baseline adjusted) was 0 ng/mL. For the same compound, the “Plasma level of free EPA” value ([1]; oral gavage 40 mg/kg, 18 h, molar dose equivalent, baseline adjusted) was 0 ng/mL, the “AUC 0-1 hrs (free EPA)” value [1, 5] was 4600 ng·h/mL and the “AUC 0-4 hrs (free EPA)” value [1, 5] was 12800 ng·h/mL. The “AUC 0-18 hrs (free EPA)” value [1, 5] was 18300 ng·h/mL, the “Cmax (free EPA)” value [1, 5] was 9500 ng/mL and the “AUC over 18 hours (free EPA), times greater than EPA-EE” value ([1]; oral gavage) was “approximately 2.6 times”. For the same compound, the “AUC over 18 hours (free EPA), times greater than EPA-FFA” value ([1]; oral gavage) was roughly 1.8 times, the “Cmax (free EPA), times greater than EPA-EE” value ([1]; oral gavage) was “approximately 8.9 times” and the “Cmax (free EPA), times greater than EPA-FFA” value ([1]; oral gavage) was roughly 7.4 times. The “Tmax (free EPA)” value ([2]; intravenous injection 20 mg/kg) was 1 min, the “Plasma level of free EPA” value ([2]; intravenous injection 20 mg/kg, 0 min, molar dose equivalent, baseline adjusted) was 0 ng/mL and the “Plasma level of free EPA” value ([2]; intravenous injection 20 mg/kg, 1 min, molar dose equivalent, baseline adjusted) was 34500 ng/mL. For the same compound, the “Plasma level of free EPA” value ([2]; intravenous injection 20 mg/kg, 5 min, molar dose equivalent, baseline adjusted) was 6600 ng/mL, the “Plasma level of free EPA” value ([2]; intravenous injection 20 mg/kg, 10 min, molar dose equivalent, baseline adjusted) was 6400 ng/mL and the “Plasma level of free EPA” value ([2]; intravenous injection 20 mg/kg, 15 min, molar dose equivalent, baseline adjusted) was 11400 ng/mL. For the same compound, the “Plasma level of free EPA” value ([2]; intravenous injection 20 mg/kg, 30 min, molar dose equivalent, baseline adjusted) was 8800 ng/mL, the “Plasma level of free EPA” value ([2]; intravenous injection 20 mg/kg, 60 min, molar dose equivalent, baseline adjusted) was 4600 ng/mL and the “Plasma level of free EPA” value ([2]; intravenous injection 20 mg/kg, 120 min, molar dose equivalent, baseline adjusted) was 2300 ng/mL. For the same compound, the “Plasma level of free EPA” value ([2]; intravenous injection 20 mg/kg, 240 min, molar dose equivalent, baseline adjusted) was 1800 ng/mL, the “AUC 0-1 hrs (free EPA)” value [2, 6] was 8300 ng·h/mL and the “AUC 0-4 hrs (free EPA)” value [2, 6] was 15900 ng·h/mL. For the same compound, the “Cmax (free EPA)” value [2, 6] was 34500 ng/mL, the “AUC over 1 hour (free EPA), times greater than EPApo” value ([2]; intravenous vs oral gavage) was roughly 13.4 times and the “AUC over 1 hour (free EPA), times greater than TP-212po” value ([2]; intravenous vs oral gavage) was “approximately 1.8 times”. The “AUC over 4 hours (free EPA), times greater than EPApo” value ([2]; intravenous vs oral gavage) was roughly 5.1 times, the “AUC over 4 hours (free EPA), times greater than TP-212po” value ([2]; intravenous vs oral gavage) was “approximately 1.2 times” and the “Cmax (free EPA), times greater than EPA-FFApo” value ([2]; intravenous vs oral gavage) was roughly 27 times. For the same compound, the “Cmax (free EPA), times greater than TP-212po” value ([2]; intravenous vs oral gavage) was “approximately 3.6 times”, the Hyperemia ([3]; 0.5% concentration in PBS) was “increase in hyperemia (but not squinting) after the first dose” and the Squinting ([3]; 0.5% concentration in PBS, topical to cornea) was “not squinting”. For the same compound, the Hyperemia ([3]; 1.0% concentration in PBS) was “increase in hyperemia (but not squinting) after the first dose”, the Squinting ([3]; 1.0% concentration in PBS, topical to cornea) was “not squinting” and the “Irritation, overall conclusion” value ([3]; concentrations of less than 1.0%, topical to cornea, repeat dosing) was “may cause some initial irritation upon the very first installation, but the animals acclimated well to repeat dosing”. For the same compound, the “Hyperemia at last dose / final evaluation” value [3] was “returned to baseline levels by the final evaluation”, the “Stability by NMR (amount of sample remaining relative to original sample)” value ([4]; Day 3) was 1 (1 = >95%) and the “Stability by NMR (amount of sample remaining relative to original sample)” value ([4]; Day 14) was 1 (1 = >95%). The “Stability by NMR (amount of sample remaining relative to original sample)” value ([4]; Day 30) was 1 (1 = >95%) and the “Stability by NMR (amount of sample remaining relative to original sample)” value ([4]; Day 60) was 1 (1 = >95%).
For `CC/C=C\C/C=C\C/C=C\C/C=C\C/C=C\CCCC(=O)O.NCCCC[C@H](NC(=O)[C@@H](N)CCCCN)C(=O)O` [Compound 1, (L,L) Lysyl-lysine EPA salt (mono)], the Hyperemia ([3]; 0.1% concentration in PBS) was “maintained baseline levels of hyperemia throughout both evaluations”, the Hyperemia ([3]; 0.25% concentration in PBS) was “maintained baseline levels of hyperemia throughout both evaluations” and the Hyperemia ([3]; 0.5% concentration in PBS) was “some initial increase in hyperemia”. For the same compound, the Squinting ([3]; all concentrations tested, topical to cornea) was “no statistically significant changes in squinting”, the “Hyperemia at last dose / final evaluation” value [3] was “returned to baseline levels by the last dose on Day 3” and the “Concentration at which not irritating / well tolerated” value ([3]; topical to cornea four times daily for 3 days) was “less than 0.5%”. For the same compound, the “Stability by NMR (amount of sample remaining relative to original sample)” value ([4]; Day 3) was 1 (1 = >95%), the “Stability by NMR (amount of sample remaining relative to original sample)” value ([4]; Day 14) was 1 (1 = >95%) and the “Stability by NMR (amount of sample remaining relative to original sample)” value ([4]; Day 30) was 1 (1 = >95%). The “Stability by NMR (amount of sample remaining relative to original sample)” value ([4]; Day 60) was 1 (1 = >95%).
